The source of these data is publication PMC7440915, “Discovery of surrogate agonists for visceral fat Treg cells that modulate metabolic indices in vivo” (eLife, 2020).

Where no end group is shown, it is not given here.

The assay concerns vTreg53 Treg cells. In words: Proliferation of transferred vTreg53 Treg cells in spleen after immunization. In kind it is in vivo, mouse. Particulars: CFA/Fat1562, 200 µg s.c., three days. An excerpt:
Figure 4. SPs induce proliferation and activation of vTreg53 Treg cells in vitro and in vivo. (A–D) Proliferation and activation of vTreg53 Treg cells by different concentrations of SPs for 3 days in vitro (n = 3). (A) Representative flow cytometric plot of cell division. (B) Summary of cell proliferation. (C) Mean flourescence intensity (MFI) of CD44 staining in clonotype^+ Treg cells. (D) MFI of CD62L staining in clonotype^+ Treg cells. (E) Proliferation of transferred CD45.2^+ vTreg53 Treg cells in the spleen of CD45.1^+ B6 recipient mice immunized s.c. with CFA or CFA/Fat1562 at day 3 (n = 3). […]
To assess early Treg proliferation following peptide stimulation in vivo, 0.4 million Treg cells were sorted from pooled Spl and LNs of 6-8wk-old male CD45.2^+ Tg^+ Foxp3-GFP^KI/y mice by Moflo, labeled by the CellTrace Violet dye (ThermoFisher Scientific), and were i.v.-injected into 6-8wk old male B6.CD45.1^+ mice. […] Proliferation of clonotype^+ Tregs in the spleen was determined three days later. […] Six weeks later, the recipient mice were immunized with 200 µg CFA/peptides s.c. on the lower back, and one week later were boosted with 100 μg IFA/peptides i.p. After another week, clonotype^+ CD45.2^+ Treg cells from the Spl/LNs or VAT of recipient mice were analyzed by flow cytometry and double-sorted for ultra-low-input RNA-seq. […]

On to TMYKNPRPMAATG [Fat1562], for which the “proliferation of transferred clonotype^+ Treg cells in spleen” value is on record as “robust proliferation”.
